Structures can show the parent of a compound that is named as a salt.
Assays:
[1] = tested on: myeloperoxydase (MPO); experiment: Myeloperoxydase activity in intestinal tissue, acute colitis model (2,4,6-trinitrobenzensulphonic acid); type: in vivo; details: for Myeloperoxydase activity (unit/mg tissue): rectal route, amount corresponding to 100 mg/kg of 5-ASA, 6 administrations, intestinal tissue (wet)
Procedure: Myeloperoxydase Activity of the 5-Aminosalicylic Acid (4-nitroxy)butyl Ester Compared with that of the Corresponding Hydrochloride and Nitrate Salts, in an Acute Colitis Model
4 groups of 6 animals each have been formed. The groups were treated, respectively, with the carrier (carboxymethylcellulose aqueous solution 1%), 100 mg/Kg of 5-ASA, a 5-ASA-NO2.HCl amount corresponding to 100 mg/kg of 5-ASA, an amount of 5-ASA-NO2.HNO3 correspsonding to 100 mg/kg of 5-ASA.
The animals were treated by rectal route with the above compounds at zero time. After one hour the animals were treated with 0.5 ml of a 60 mg/ml solution of 2,4,6,trinitro-benzensulphonic acid in ethyl alcohol 50%. After two hours the animals were treated again by rectal route with the same compounds and at 12 hour intervals up to a total of 6 administrations.
The tissular levels of the myeloperoxydase (MPO) enzym have been measured which is an inflammatory process marker in various tissues, among which the bony-articular one (C. Rathakrishnan et Al., “Release of oxygen radicals by articular chondrocytes: A study of luminol-dependent chemiluminescence and hydrogen peroxide secretion” J. Bone Miner. Res. 7/10 1139-1148 1992).
The myeloperoxydase activity was measured by using a modified version of the experimental model described by Bradley et al. J. Invest. Dermatol. 78, 206-209, 1982. Samples of intestinal tissue were drawn from each animal, which were suspended in 0.1% of hexadecyltrimethylammonium bromide (50 mg/ml) at a pH 6 and homogenized for 15 seconds (Polytron® PT-7 generator). The samples were frozen and then defrosted three times subsequently before being centrifuged (9,000 g) for 2 minutes in an Eppendorf® Benchtop centrifuge. The myeloperoxydase activity was measured by adding 7 μl of the surnatant to 200 μl of o-dianisidine (Sigma) reactant and measuring the optical density variation at 450 nm in a two minute time in a Microtitre Multiscan®. The reactant contained 0.0005% of hydrogen peroxide as substratum for the myeloperoxydase enzym. One unity of the myeloperoxydase activity was defined as the one capable to convert an hydrogen proxide micromole to water in one minute at 22° C. The results are reported in Table II and are expressed as unit number of the myeloperoxydase activity/tissue mg (wet).

[2] = Gastric damage induced by Aspirin, Alendronate compared with Alendronate nitrate salt; details: rats, after Aspirin 125 mg/Kg, Alendronate dose 80 mg/Kg p.o.
Procedure: Prevention of the Gastric Damage Induced by Aspirin by Administering Alendronate in Comparison with Alendronate Nitrate Salt
Three groups of 5 rats each were treated by oral route with gastric probe as indicated hereinafter:
I group: treated with Alendronate (Alen.) at the dose of 80 mg/Kg.
II group: 1 h before the Alendronate 80 mg/Kg dose, ASpirin (Asp.) was supplied per os at the dose of 125 mg/Kg.
III group: 1 h before the Alendronate nitrate, (Alen.HNO3) corresponding to the Alendronate 80 mg/Kg dose, Aspirin was supplied per os at the dose of 125 mg/Kg.
The evaluation of the gastric damage was carried out sacrificing the animals three hours after the treatment with Alendronate or Alendronate nitrate.

[3] = Gastric toxicity (gastric lesion incidence) after oral administration in fasted rats; type: in vivo; details: for Gastric damage (% incidence): rat, in vivo, po, 100 mg/kg
Procedure: Gastric Toxicity of Piroxicam Nitrate Salt (Ex. 1) Compared with Piroxicam
To 3 groups of 10 rats each, kept on empty stomach since 24 hours, orally are administered:
5 ml/Kg of carboxymethylcellulose aqueous suspension 2%.
an amount of nitrate Piroxicam corresponding to 100 mg/kg of Piroxicam in 5 ml/kg of carboxymethylcellulose aqueous suspension 2%.
an amount of hydrocloride Piroxicam corresponding to 100 mg/kg of Piroxicam in 5 ml/kg of carboxymethylcellulose aqueous suspension 2%.
Six hours later the animals are sacrificed and the gastric lesion incidence is evaluated.

[4] = Acute toxicity, single oral dose in rats; type: in vivo; details: single dose 100 mg/kg orally in carboxymethylcellulose aqueous suspension 2% w/v, observation for 14 days
Procedure: To a group of 10 rats weighing […] a single dose equal to 100 mg/kg of Piroxicam nitrate salt (Example 1), has been administered by cannula orally in a carboxymethylcellulose aqueous suspension 2% w/v.
The animals are kept under obsevation for 14 days.

Compound: Nc1ccc(O)c(C(=O)O)c1 [Example 5-ASA, 5-aminosalicylic acid, reference compound]
- Myeloperoxydase activity (unit/mg tissue) [1]: 72 ± 15 unit/mg tissue

Compound: Cl.Nc1ccc(O)c(C(=O)OCCCCO[N+](=O)[O-])c1 [5-ASA-NO2.HCl, Hydrochloride Salt of the 5-Aminosalicylic Acid (4-nitroxy)-butyl Ester, reference compound]
- Myeloperoxydase activity (unit/mg tissue) [1]: 111 ± 20 unit/mg tissue

Compound: Nc1ccc(O)c(C(=O)OCCCCO[N+](=O)[O-])c1.O=[N+]([O-])O [5-ASA-NO2.HNO3, Nitrate Salt of the 5-amino-2-hydroxybenzoic Acid (4-nitroxy)butyl Ester]
- myeloperoxydase activity (comparison in words) ([1]; acute colitis model, compared with the other groups): lower than that of the other groups
- pharmacological activity compared with the unsalified compound ([1]; pharmacological model indicated in the examples): more active than the unsalified compound
- Myeloperoxydase activity (unit/mg tissue) [1]: 35 ± 13 unit/mg tissue

Compound: Alendronate Nitrate Salt [Alen.HNO3]
- reduction of the level of the gastric damage in comparison with Alendronate [2]: 4 to 5 times

Compound: CN1C(C(=O)Nc2ccccn2)=C(O)c2ccccc2S1(=O)=O [Piroxicam.HCl, Piroxicam hydrochloride, reference compound]
- Gastric damage (% incidence) ([3]; 6 h): 100%

Compound: Piroxicam Nitrate Salt [Piroxicam.HNO3]
- Gastric damage (% incidence) [3]: 20%
- gastric tolerability (comparison in words) ([3]; rats, 100 mg/kg p.o., compared with Piroxicam hydrochloride): improved gastric tolerability compared with Piroxicam hydrochloride
- toxic symptom presence [4]: In no one of the animals of the group the toxic symptom presence was noticed

Source: patent publication US6573252B1, “Medicine nitrate salts” (priority 1998, dated 2003)
